Test results taken from ChEMBL document CHEMBL1201862, “PubChem BioAssay data set” (2004).
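Where inhibition never reached the appropriate level, the endpoint shown equals the highest concentration tested. Otherwise, values were interpolated linearly from a five-concentration, 48-hour dose response in 96-well plates. Here, GI50 denotes the concentration required for 50% inhibition of growth.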 The source made the active and inactive calls. Cut-off read from the data, not from the text of the source: active = GI50 up to about 1.1 µM and inactive = higher.

Assays:
Assay in all cases: NCI-60 cell line screen, 48 h
[1] = system: COLO 205
[2] = system: HCC 2998
[3] = system: HCT-15
[4] = system: Hs-578T
[5] = system: MDA-N
[6] = system: MOLT-4
[7] = system: NCI-H226
[8] = system: NCI-H522
[9] = system: NCI/ADR-RES
[10] = system: RXF 393
[11] = system: SF-268
[12] = system: SF-295
[13] = system: SK-MEL-2
[14] = system: SK-MEL-5
[15] = system: SNB-19
[16] = system: SNB-75
[17] = system: SR
[18] = system: TK-10
[19] = system: UO-31

Row | SMILES | GI50 [1] | GI50 [2] | GI50 [3] | GI50 [4] | GI50 [5] | GI50 [6] | GI50 [7] | GI50 [8] | GI50 [9] | GI50 [10] | GI50 [11] | GI50 [12] | GI50 [13] | GI50 [14] | GI50 [15] | GI50 [16] | GI50 [17] | GI50 [18] | GI50 [19]
1 | CCCCC/C=C1\CC(CO)(COC(=O)CC(C(C)C)C(C)C)OC1=O (stereo not drawn) | 3.04 µM (inactive) | 15.4 µM (inactive) | 19.9 µM | 4.62 µM (inactive) | 8.15 µM (inactive) | 15.2 µM (inactive) | 13.7 µM (inactive) | 17.8 µM (inactive) | 20.3 µM (inactive) | 17.9 µM (inactive) | 17.9 µM (inactive) | 5.52 µM (inactive) | 20.3 µM (inactive) | 11 µM (inactive) | 15 µM (inactive) | 12.1 µM (inactive) | 28.6 µM (inactive) | 14.2 µM (inactive) | 13.7 µM (inactive)
2 | COc1cc(C)cc2c1c(=O)c1ccccc1n2C | 27.2 µM (inactive) | 45.7 µM (inactive) | 36.4 µM | 48.3 µM (inactive) | 19 µM (inactive) | 31.3 µM (inactive) | 33.5 µM (inactive) | 34 µM (inactive) | 33.8 µM (inactive) | 28.3 µM (inactive) | 49.7 µM (inactive) | 20.8 µM (inactive) | 15.9 µM (inactive) | 25 µM (inactive) | 54.8 µM (inactive) | 41.7 µM (inactive) | 22.1 µM (inactive) | 56.4 µM (inactive) | –
3 | O=C1CC2C=CC(O)C(C1)C2 (stereo not drawn) | > 100 µM (inactive) | > 100 µM (inactive) | > 100 µM | 21 µM (inactive) | > 100 µM (inactive) | > 100 µM (inactive) | 37.4 µM (inactive) | > 100 µM (inactive) | > 100 µM (inactive) | 3.49 µM (inactive) | > 100 µM (inactive) | > 100 µM (inactive) | > 100 µM (inactive) | – | > 100 µM (inactive) | 72.6 µM (inactive) | < 0.01 µM (active) | > 100 µM (inactive) | > 100 µM (inactive)
4 | O=C1C(/N=N/c2ccc(-c3nc4ccccc4[nH]3)cc2)NC(=S)N1c1ccccc1 (stereo not drawn) | 73.6 µM (inactive) | 21.2 µM (inactive) | 18.2 µM | > 100 µM (inactive) | 39.5 µM (inactive) | 18.9 µM (inactive) | > 100 µM (inactive) | 48.6 µM (inactive) | > 100 µM (inactive) | 13.4 µM (inactive) | > 100 µM (inactive) | 91.6 µM (inactive) | > 100 µM (inactive) | > 100 µM (inactive) | > 100 µM (inactive) | 93.1 µM (inactive) | 0.671 µM (active) | > 100 µM (inactive) | > 100 µM (inactive)
5 | CN(CCNC(=O)c1cn(C)c2c1ccc1cc(Cl)ccc12)CCNC(=O)c1cn(C)c2c1ccc1cc(Cl)ccc12 | 1.2 µM (inactive) | 1.49 µM (inactive) | 1.78 µM | 1.94 µM (inactive) | 1.95 µM (inactive) | 5.01 µM (inactive) | 25.9 µM (inactive) | 1.85 µM (inactive) | 2.05 µM (inactive) | 1.57 µM (inactive) | 1.77 µM (inactive) | 1.86 µM (inactive) | 6.92 µM (inactive) | 10.9 µM (inactive) | 1.83 µM (inactive) | 1.68 µM (inactive) | 5.11 µM (inactive) | 7.13 µM (inactive) | 1.53 µM (inactive)
6 | O=c1c2cccnc2[nH]c2ccc3[nH]ncc3c12 | > 10 µM (inactive) | > 10 µM (inactive) | 6.18 µM | > 10 µM (inactive) | > 10 µM (inactive) | > 10 µM (inactive) | > 10 µM (inactive) | > 10 µM (inactive) | > 10 µM (inactive) | > 10 µM (inactive) | > 10 µM (inactive) | > 10 µM (inactive) | > 10 µM (inactive) | > 10 µM (inactive) | > 10 µM (inactive) | > 10 µM (inactive) | > 10 µM (inactive) | > 10 µM (inactive) | –
7 | COC(=O)c1c(CC(Cc2ccc3c(c2)CCCC3)C(=O)O)ccc2c1CCCC2 (stereo not drawn) | 18.3 µM (inactive) | 32.4 µM (inactive) | 18 µM | 25.8 µM (inactive) | 43.2 µM (inactive) | 37.1 µM (inactive) | 39.9 µM (inactive) | 11.6 µM (inactive) | 17.9 µM (inactive) | 35.2 µM (inactive) | 37.1 µM (inactive) | 32.6 µM (inactive) | 20.9 µM (inactive) | 34.4 µM (inactive) | 40.7 µM (inactive) | 36.4 µM (inactive) | 30.5 µM (inactive) | 36.1 µM (inactive) | 25.8 µM (inactive)
8 | Cn1c(=O)c2sc3cc4c(cc3c2c2ccccc21)sc1c(=O)n(C)c2ccccc2c14 | > 100 µM (inactive) | > 100 µM (inactive) | > 100 µM | 43.4 µM (inactive) | > 100 µM (inactive) | 78.2 µM (inactive) | > 100 µM (inactive) | 34.2 µM (inactive) | > 100 µM (inactive) | 15.9 µM (inactive) | 59.7 µM (inactive) | 15.2 µM (inactive) | > 100 µM (inactive) | > 100 µM (inactive) | – | 12.9 µM (inactive) | 25.8 µM (inactive) | > 100 µM (inactive) | 74.8 µM (inactive)
